Experimental data: paper PMC11452043, “In vitro 5-LOX inhibitory and antioxidant potential of isoxazole derivatives” (PLOS ONE, 2024)

Key:
[1] = DPPH free radical scavenging (antioxidant) assay; conditions: for DPPH percent inhibition: mean ± SEM, n = 3
Description: The previously outlined methodology will be employed to evaluate the compounds’ antioxidant ability, as determined by the processes of the 1,1-diphenyl, 2-picrylhydrazyl (DPPH) free radical. The experimental specimens will be subjected to dilution using different quantities, spanning from 62.5 to 1000 μg/ml, and afterwards introduced into a methanolic solution of DPPH at a concentration of 0.004%. At 517 nm, the absorbance will be determined by a UV spectrophotometer following a 30-minute duration. The scavenging capability of ascorbic acid will be quantified by employing the equation: DPPH=[(A0−A1)/A0]100 Whereas: […]
Every test was carried out three times, and the median inhibitory dosages (IC50) were determined. The drawing of inhibition graphs was performed by GraphPad Prism software-GraphPAD, San Diego, California, USA.
The IC50 values were determined from dosage response curve using Microsoft Excel program.

[2] = tested on: paw edema; conditions: dose dependent manner; cited from earlier work
[3] = tested on: 5-LOX; conditions: cited from earlier work
[4] = tested on: tumor growth; conditions: in vivo and in vitro; cited from earlier work
[5] = tested on: COX; conditions: cited from earlier work
[6] = target: T1, 5-lipoxygenase (5-LOX) enzyme (Homo sapiens, UniProt P09917); experiment: 5-LOX inhibitory assay; format: biochemical; conditions: for inhibition at 62.5 µg/mL: 62.5 μg/ml; for inhibition at 62.5 µg/mL / inhibition at 125 µg/mL / inhibition at 250 µg/mL / inhibition at 500 µg/mL / inhibition at 1000 µg/mL: mean ± SEM, n = 3, read-out: 5-LOX percent inhibition; for inhibition at 125 µg/mL: 125 μg/ml; for inhibition at 250 µg/mL: 250 μg/ml; for inhibition at 500 µg/mL: 500 μg/ml; for inhibition at 1000 µg/mL: 1000 μg/ml
T1 sequence (P09917 1-674): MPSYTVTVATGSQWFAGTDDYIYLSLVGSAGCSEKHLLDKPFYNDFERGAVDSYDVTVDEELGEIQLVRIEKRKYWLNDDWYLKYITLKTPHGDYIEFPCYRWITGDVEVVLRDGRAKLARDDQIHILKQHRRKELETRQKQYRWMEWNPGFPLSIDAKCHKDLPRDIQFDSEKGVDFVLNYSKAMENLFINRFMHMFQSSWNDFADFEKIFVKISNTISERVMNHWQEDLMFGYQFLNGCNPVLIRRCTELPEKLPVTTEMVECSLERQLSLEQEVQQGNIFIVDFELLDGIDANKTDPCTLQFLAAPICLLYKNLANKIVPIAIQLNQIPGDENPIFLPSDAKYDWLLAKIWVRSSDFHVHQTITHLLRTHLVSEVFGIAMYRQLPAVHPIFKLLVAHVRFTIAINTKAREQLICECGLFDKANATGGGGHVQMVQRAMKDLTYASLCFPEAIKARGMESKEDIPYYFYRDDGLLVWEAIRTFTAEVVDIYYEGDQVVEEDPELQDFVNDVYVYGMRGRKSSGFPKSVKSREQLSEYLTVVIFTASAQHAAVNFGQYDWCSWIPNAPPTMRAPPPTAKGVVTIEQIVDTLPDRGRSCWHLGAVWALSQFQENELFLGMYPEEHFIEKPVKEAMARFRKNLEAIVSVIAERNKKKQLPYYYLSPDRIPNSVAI
Description: The synthesized Isoxazole derivatives will be investigated for 5-LOX Inhibition studies as per established protocols of Wisastra and his co researchers. In this experiment, residual enzyme potential will be utilized to measure the degree of enzyme inhibition after 10 to 15 minutes of inhibitor’s incubation at 25°C. The reaction involving the conversion of linoleic acid, a substrate of lipoxygenase, into hydroperoxy-octadecadienoate (HPOD) will be employed as a means of quantifying the said reaction. The variation in the rate of absorption will be determined by employing a UV-visible spectrophotometer set at a wavelength of 234 nm. A 50 mM Tris buffer containing 2 mM EDTA and 2 mM CaCl2 was used as the assay buffer in this experiment. The buffer has a pH of 7.5. Following this, a buffer solution was employed to dilute the 5-lipoxygenase (5-LOX) enzyme at a concentration of 20,000 units per millilitre (U/mL) at a ratio of 1:4000. The 100 mM inhibitor was diluted using the test buffer following the administration of dimethyl sulfoxide (DMSO) for its dissolution. The content of linoleic acid was reduced to 20 mg/ml through dilution using ethyl alcohol. To accomplish this, 1 mL of the enzyme solution (1: 4000) will be combined with 100 μL of 2 mM adenosine triphosphate (ATP), 100 μL of the inhibitor (1 mM), and […] of Tris buffer while incubated for 10 min. Following approximately 10 seconds of the substrate and the enzyme mixing together, 10 μL of a 20 mM substrate solution will be added to the mixture. At that point, the changing rate of the substrate will be determined. The response rate will be utilized as a positive control without blockers. In this experiment, montelukast will be utilized as the reference medicine.

| IC50 [1] [µM] | Structure (SMILES) | DPPH percent inhibition ([1]; 62.5 μg/mL) [%] | DPPH percent inhibition ([1]; 125 μg/mL) [%] | DPPH percent inhibition ([1]; 250 μg/mL) [%] | DPPH percent inhibition ([1]; 500 μg/mL) [%] | DPPH percent inhibition ([1]; 1000 μg/mL) [%] | inhibition of paw edema [2] | activity of 5-LOX [3] | inhibition on tumor growth [4] | activity of COX [5] | IC50 [6] [µM] | inhibition at 62.5 µg/mL [6] [%] | inhibition at 125 µg/mL [6] [%] | inhibition at 250 µg/mL [6] [%] | inhibition at 500 µg/mL [6] [%] | inhibition at 1000 µg/mL [6] [%] |
| --- | --- | --- | --- | --- | --- | --- | --- | --- | --- | --- | --- | --- | --- | --- | --- | --- |
| 17.9 | O=C1O[C@H]([C@@H](O)CO)C(O)=C1O [Ascorbic acid, reference compound] | 77.72±0.59 | 79.37±0.71 | 82.25±0.72 | 87.65±0.42 | 92.51±0.69 |  |  |  |  |  |  |  |  |  |  |
|  | CCO/C(C)=N/c1onc(C)c1C(=O)NCc1ccc(OC)cc1OC [Compound 64] |  |  |  |  |  | strongly inhibited |  |  |  |  |  |  |  |  |  |
|  | COc1cc(-c2cc(-c3sccc3C)no2)cc(OC)c1OC [Compound 65] |  |  |  |  |  |  | considerably reduce | excellent inhibition | considerably reduce |  |  |  |  |  |  |
| 18.9 | COc1ccc(C2NC(=O)NC(C(F)(F)F)=C2c2cc(-c3ccco3)on2)cc1 (stereo not shown) [Compound C6] | 73.72±0.64 | 78.42±0.66 | 83.53±0.45 | 88.45±0.49 | 91.63±0.55 |  |  |  |  | 3.67 | 81.9 ± 0.96 | 85.08 ± 0.47 | 88.8 ± 1.26 | 91.4 ± 0.2 | 94.6 ± 1.12 |
|  | CC(C)(O)c1ccccc1CC[C@@H](SCC1(CC(=O)O)CC1)c1cccc(/C=C/c2ccc3ccc(Cl)cc3n2)c1 [Montelukast, reference compound] |  |  |  |  |  |  |  |  |  | 21.8 | 71.8 ± 0.9 | 76.4 ± 1.2 | 81.6 ± 1.63 | 87.5 ± 0.9 | 94.1 ± 1.04 |
